In brackets after ≈: the same amount, converted by molar mass.
Columns and labels:
Assay type in all cases: functional
Candida albicans [1] = assay: Antifungal activity against Candida albicans 5 assessed as inhibition in fungal growth incubated for 48 hrs by microplate reader analysis
Candida parapsilosis [2] = assay: Antifungal activity against Candida parapsilosis 15 assessed as inhibition in fungal growth incubated for 48 hrs by microplate reader analysis; settings: Lodderomyces parapsilosis
Candida tropicalis [3] = assay: Antifungal activity against Candida tropicalis ATCC750 (Y-12699) assessed as reduction in fungal viability incubated for 48 hrs by microplate reader analysis
Candida tropicalis [4] = assay: Antifungal activity against Candida tropicalis 13 assessed as inhibition in fungal growth incubated for 48 hrs by microplate reader analysis
Pichia kudriavzevii = assay: Antifungal activity against multidrug-resistant Candida krusei 397 assessed as inhibition in fungal growth incubated for 48 hrs by microplate reader analysis
Candida albicans [5] = assay: Antifungal activity against Candida albicans SC5314 assessed as inhibition in fungal growth incubated for 48 hrs in presence of 10% serum by microplate reader analysis
Cryptococcus neoformans [6] = assay: Antifungal activity against Cryptococcus neoformans H99 assessed as reduction in fungal viability incubated for 48 hrs by microplate reader analysis
Aspergillus terreus [7] = assay: Antifungal activity against Aspergillus terreus 191A6 assessed as reduction in fungal growth incubated for 48 hrs by microplate reader analysis
Candida tropicalis [8] = assay: Antifungal activity against Candida tropicalis ATCC750 (Y-12699) assessed as reduction in fungal growth incubated for 48 hrs by microplate reader analysis
[Candida] auris [9] = Antifungal activity against multidrug-resistant Candida auris 382 assessed as inhibition in fungal growth incubated for 48 hrs by microplate reader analysis; settings: Candidozyma auris
Aspergillus terreus [10] = assay: Antifungal activity against Aspergillus terreus 191A6 assessed as reduction in fungal viability incubated for 48 hrs by microplate reader analysis
Nakaseomyces glabratus [11] = assay: Antifungal activity against Candida glabrata 17 assessed as inhibition in fungal growth incubated for 48 hrs by microplate reader analysis
Candida albicans [12] = assay: Antifungal activity against Candida albicans 8 assessed as inhibition in fungal growth incubated for 48 hrs by microplate reader analysis
[Candida] auris [13] = Antifungal activity against multidrug-resistant Candida auris 390 assessed as inhibition in fungal growth incubated for 48 hrs by microplate reader analysis; settings: Candidozyma auris
[Candida] auris [14] = Antifungal activity against multidrug-resistant Candida auris 381 assessed as inhibition in fungal growth incubated for 48 hrs in presence of 5% serum by microplate reader analysis; settings: Candidozyma auris
[Candida] auris [15] = Antifungal activity against multidrug-resistant Candida auris 381 assessed as inhibition in fungal growth incubated for 48 hrs in presence of 10% serum by microplate reader analysis; settings: Candidozyma auris
Candida albicans [16] = assay: Antifungal activity against Candida albicans ATCC 10231 assessed as reduction in fungal growth incubated for 48 hrs by microplate reader analysis
Mucor circinelloides = assay: Antifungal activity against Mucor circinelloides 235C7 assessed as reduction in fungal growth incubated for 48 hrs by microplate reader analysis
Candida parapsilosis [17] = assay: Antifungal activity against Candida parapsilosis ATCC 22019 (Y-12969) assessed as reduction in fungal growth incubated for 48 hrs by microplate reader analysis; settings: Lodderomyces parapsilosis
Candida albicans [18] = assay: Antifungal activity against Candida albicans 14 assessed as inhibition in fungal growth incubated for 48 hrs by microplate reader analysis
Candida albicans [19] = assay: Antifungal activity against Candida albicans SC5314 assessed as inhibition in fungal growth incubated for 48 hrs in presence of 0% serum by microplate reader analysis
Aspergillus fumigatus [20] = assay: Antifungal activity against Aspergillus fumigatus MYA 3627 assessed as reduction in fungal growth incubated for 48 hrs by microplate reader analysis
Aspergillus fumigatus [21] = assay: Antifungal activity against Aspergillus fumigatus ATCC MYA-3627 assessed as inhibition in fungal growth incubated for 48 hrs in presence of 10% serum by microplate reader analysis
[Candida] haemuloni = Antifungal activity against multidrug-resistant Candida haemulonii 393 assessed as inhibition in fungal growth incubated for 48 hrs by microplate reader analysis; settings: Candidozyma haemuli
[Candida] auris [22] = Antifungal activity against multidrug-resistant Candida auris 383 assessed as inhibition in fungal growth incubated for 48 hrs by microplate reader analysis; settings: Candidozyma auris
Candida albicans [23] = assay: Antifungal activity against Candida albicans 24 assessed as inhibition in fungal growth incubated for 48 hrs by microplate reader analysis
Nakaseomyces glabratus [24] = assay: Antifungal activity against Candida glabrata 22 assessed as inhibition in fungal growth incubated for 48 hrs by microplate reader analysis
Candida albicans [25] = assay: Antifungal activity against Candida albicans 21 assessed as inhibition in fungal growth incubated for 48 hrs by microplate reader analysis
[Candida] auris [26] = Antifungal activity against multidrug-resistant Candida auris 385 assessed as inhibition in fungal growth incubated for 48 hrs by microplate reader analysis; settings: Candidozyma auris
[Candida] auris [27] = Antifungal activity against multidrug-resistant Candida auris 381 assessed as inhibition in fungal growth incubated for 48 hrs by microplate reader analysis; settings: Candidozyma auris
Cryptococcus neoformans [28] = assay: Antifungal activity against Cryptococcus neoformans H99 assessed as reduction in fungal growth incubated for 48 hrs by microplate reader analysis
Aspergillus flavus = assay: Antifungal activity against Aspergillus flavus NRRL485 assessed as reduction in fungal growth incubated for 48 hrs by microplate reader analysis
[Candida] auris [29] = Antifungal activity against multidrug-resistant Candida auris 389 assessed as inhibition in fungal growth incubated for 48 hrs by microplate reader analysis; settings: Candidozyma auris
Curvularia lunata [30] = assay: Antifungal activity against Curvularia lunata NRRL6409 assessed as reduction in fungal viability incubated for 48 hrs by microplate reader analysis
Cryptococcus neoformans [31] = assay: Antifungal activity against Cryptococcus neoformans H99 assessed as inhibition in fungal growth incubated for 48 hrs in presence of 5% serum by microplate reader analysis
Fusarium solani = assay: Antifungal activity against Fusarium solani 243G2 assessed as reduction in fungal growth incubated for 48 hrs by microplate reader analysis
Aspergillus fumigatus [32] = assay: Antifungal activity against Aspergillus fumigatus MYA 3627 assessed as reduction in fungal viability incubated for 48 hrs by microplate reader analysis
Candida parapsilosis [33] = assay: Antifungal activity against Candida parapsilosis 28 assessed as inhibition in fungal growth incubated for 48 hrs by microplate reader analysis; settings: Lodderomyces parapsilosis
Nakaseomyces glabratus [34] = assay: Antifungal activity against Candida glabrata 4 assessed as inhibition in fungal growth incubated for 48 hrs by microplate reader analysis
Nakaseomyces glabratus [35] = assay: Antifungal activity against Candida glabrata 2 assessed as inhibition in fungal growth incubated for 48 hrs by microplate reader analysis
Candida albicans [36] = assay: Antifungal activity against Candida albicans 1 assessed as inhibition in fungal growth incubated for 48 hrs by microplate reader analysis
Candida parapsilosis [37] = assay: Antifungal activity against Candida parapsilosis 18 assessed as inhibition in fungal growth incubated for 48 hrs by microplate reader analysis; settings: Lodderomyces parapsilosis
Paecilomyces lilacinus = assay: Antifungal activity against Paecilomyces lilacinus 165E10 assessed as reduction in fungal growth incubated for 48 hrs by microplate reader analysis; settings: Purpureocillium lilacinum
Curvularia lunata [38] = assay: Antifungal activity against Curvularia lunata NRRL6409 assessed as reduction in fungal growth incubated for 48 hrs by microplate reader analysis

CC[C@H](C)C[C@H](C)C[C@H](C)C[C@@H]1NC(=O)[C@H](C(C)C)N(C)C(=O)[C@@H]([C@H](C)CC)OC(=O)[C@H](C(C)(C)O)N(C)C(=O)[C@H](CC(C)C)NC(=O)[C@H](C(C)C)N(C)C(=O)[C@H]([C@H](C)CC)NC(=O)[C@@H]2CCCN2C(=O)CN(C)C1=O was tested, and the MIC80 (Candida albicans [1]) was 1.3 µM (≈ 1.4 µg/mL), the MIC80 (Candida parapsilosis [2]) was 2.5 µM (≈ 2.69 µg/mL) and the “MFC<=99.9” value (Candida tropicalis [3]) was 2.5 µM (≈ 2.69 µg/mL). For the same compound, the MIC80 (Candida tropicalis [4]) was 0.6 µM (≈ 0.645 µg/mL), the MIC80 (Pichia kudriavzevii) was 2.5 µM (≈ 2.69 µg/mL) and the MIC80 (Candida albicans [5]) was 0.3 µM. For the same compound, the “MFC<=99.9” value (Cryptococcus neoformans [6]) was 2.5 µM (≈ 2.69 µg/mL), the MFC (Aspergillus terreus [7]) was greater than 10 µM and the MIC80 (Aspergillus terreus [7]) was 2.5 µM (≈ 2.69 µg/mL). It also gave an MFC (Candida tropicalis [8]) of 2.5 µM (≈ 2.69 µg/mL), an MIC80 (Candida tropicalis [8]) of 1.3 µM (≈ 1.4 µg/mL) and an MIC80 ([Candida] auris [9]) of 2.5 µM (≈ 2.69 µg/mL). The “MFC<=99.9” value (Aspergillus terreus [10]) was greater than 10 µM, the MIC80 (Nakaseomyces glabratus [11]) was 0.2 µM (≈ 0.215 µg/mL) and the MIC80 (Candida albicans [12]) was 0.6 µM (≈ 0.645 µg/mL). It also gave an MIC80 ([Candida] auris [13]) of 2.5 µM (≈ 2.69 µg/mL), an MIC80 ([Candida] auris [14]) of 1.3 µM and an MIC80 ([Candida] auris [15]) of 1.3 µM. For the same compound, the MFC (Candida albicans [16]) was 1.3 µM (≈ 1.4 µg/mL), the MIC80 (Candida albicans [16]) was 0.6 µM (≈ 0.645 µg/mL) and the MFC (Mucor circinelloides) was greater than 10 µM. The MIC80 (Mucor circinelloides) was greater than 10 µM, the MFC (Candida parapsilosis [17]) was 2.5 µM (≈ 2.69 µg/mL) and the MIC80 (Candida parapsilosis [17]) was 2.5 µM (≈ 2.69 µg/mL). It also gave an MIC80 (Candida albicans [18]) of 0.6 µM (≈ 0.645 µg/mL), an MIC80 (Candida albicans [19]) of 0.6 µM and an MFC (Aspergillus fumigatus [20]) of 5 µM (≈ 5.38 µg/mL). For the same compound, the MIC80 (Aspergillus fumigatus [20]) was 2.5 µM (≈ 2.69 µg/mL), the MIC80 (Aspergillus fumigatus [21]) was 2.5 µM and the MIC80 ([Candida] haemuloni) was 0.3 µM (≈ 0.323 µg/mL). For the same compound, the MIC80 ([Candida] auris [22]) was 2.5 µM (≈ 2.69 µg/mL), the MIC80 (Candida albicans [23]) was 0.6 µM (≈ 0.645 µg/mL) and the MIC80 (Nakaseomyces glabratus [24]) was 0.6 µM (≈ 0.645 µg/mL). The MIC80 (Candida albicans [25]) was 1.3 µM (≈ 1.4 µg/mL), the MIC80 ([Candida] auris [26]) was 2.5 µM (≈ 2.69 µg/mL) and the MIC80 ([Candida] auris [27]) was 2.5 µM (≈ 2.69 µg/mL). The MFC (Cryptococcus neoformans [28]) was 2.5 µM (≈ 2.69 µg/mL), the MIC80 (Cryptococcus neoformans [28]) was 0.6 µM (≈ 0.645 µg/mL) and the MFC (Aspergillus flavus) was greater than 10 µM. For the same compound, the MIC80 (Aspergillus flavus) was 1.3 µM (≈ 1.4 µg/mL), the MIC80 ([Candida] auris [29]) was 2.5 µM (≈ 2.69 µg/mL) and the “MFC<=99.9” value (Curvularia lunata [30]) was 0.6 µM (≈ 0.645 µg/mL). The MIC80 (Cryptococcus neoformans [31]) was less than 0.2 µM, the MFC (Fusarium solani) was 2.5 µM (≈ 2.69 µg/mL) and the MIC80 (Fusarium solani) was 1.3 µM (≈ 1.4 µg/mL). For the same compound, the “MFC<=99.9” value (Aspergillus fumigatus [32]) was 5 µM (≈ 5.38 µg/mL), the MIC80 (Candida parapsilosis [33]) was 2.5 µM (≈ 2.69 µg/mL) and the MIC80 (Nakaseomyces glabratus [34]) was 1.3 µM (≈ 1.4 µg/mL). It also gave an MIC80 (Nakaseomyces glabratus [35]) of 0.2 µM (≈ 0.215 µg/mL), an MIC80 (Candida albicans [36]) of 2.5 µM (≈ 2.69 µg/mL) and an MIC80 (Candida parapsilosis [37]) of 1.3 µM (≈ 1.4 µg/mL). The MFC (Paecilomyces lilacinus) was greater than 10 µM, the MIC80 (Paecilomyces lilacinus) was 2.5 µM (≈ 2.69 µg/mL) and the MFC (Curvularia lunata [38]) was 0.6 µM (≈ 0.645 µg/mL). For the same compound, the MIC80 (Curvularia lunata [38]) was 0.3 µM (≈ 0.323 µg/mL).

— ChEMBL document CHEMBL5390204, “Persephacin Is a Broad-Spectrum Antifungal Aureobasidin Metabolite That Overcomes Intrinsic Resistance in Aspergillus fumigatus” (J Nat Prod, 2023)
